Laboratory results published in PMC12078333, “Pharmacokinetic evaluation and bioavailability of KPT-335 (Verdinexor) in cats” (Frontiers in Veterinary Science, 2025).
Where two headings read alike, the source gives them in different places.

Assay: Pharmacokinetics study of KPT-335 in cats (i.v. injection, p.o. capsules and tablets; UPLC-MS/MS, non-compartmental analysis)
Assay type: in vivo
Conditions: both sexes, plasma, cats; for AUC(0-t): read-out: AUClast; for AUC(0-inf): read-out: AUCINF_obs; for Cmax: read-out: Cmax
Procedure: In this study, a parallel trial design was employed, 42 adult domestic cats (21 males and 21 females), aged 1 to 2 years and weighing 2.5 ± 0.25 kg. Cats were grouped by random number, with half male and female in each group, and all cats were determined to be systemically healthy during an initial screening visit 1 week prior to the experiment. They were acclimatized to the laboratory environment for 7 days before the study commenced. During this period, they were kept in solitary cages with free access to water. Cats in the fasting group were deprived of food for 12 h prior to and 2 h following drug administration, while those in the feeding group were fed twice a day. Food and water sources were consistent throughout the trail. During and at the end of the experiment, we systematically assessed the adverse reactions by recording parameters such as body weight, behavior, and coat gloss in all test cats both before and after the trial. These observations were conducted to evaluate whether any adverse reactions occurred. All procedures were reviewed and approved by the Institutional Animal Care and Use Committee of China Agricultural University (11305-23-E-002).
The UPLC-MS/MS system utilized a UPLC 1290 (Agilent) paired with a Phenomenex Kinetex C18 column (50 mm × 2.1 mm, 2.6 μm) for separation at a flow rate of 0.3 mL/min. The chromatographic mobile phase comprised water (A) and acetonitrile (B), both containing 0.1% formic acid. The gradient elution program was as follows: from 0.5 to 2.5 min, 10 to 95% B; from 2.5 to 4.5 min, 95% B; from 4.5 to 4.6 min, 95 to 10% B; and from 4.6 to 6.0 min, 10% B. The injection volume was 2 μL.
For mass spectrometry, an Agilent 6,475-LC-TQ equipped with an electrospray ion source was used. Multiple Reaction Monitoring (MRM) was selected to quantify KPT-335 in the positive ion mode. The ion transitions monitored were m/z 443.1 → 334.0 and 443.1 → 110.1 for KPT-335, and m/z 444.1 → 334.0 for the internal standard (IS). The cone voltage and collision energy were optimized for KPT-335 and the IS individually, set at 160 V and 25 eV, respectively. The optimized parameters for the instrument included an ion source temperature of 350°C, solvent removal temperature of 320°C, capillary voltage of 3.0 kV, and a solvent gas flow rate of 300 L/h.
The method was developed based on prior research conducted in the laboratory ([16]) and validated in accordance with international guidelines ([17]). The calibration concentration range for KPT-335 spanned from 0.5 to 100 ng/mL, with a lower limit of quantification (LLOQ) set at 0.5 ng/mL. The squared correlation coefficient (R^2) values exceeded 0.999, indicating high linearity.
For sample preparation, 100 μL of plasma was mixed with 10 μL of internal standard (IS) and 900 μL of acetonitrile, followed by vortexing for 2 min. The mixture was then centrifuged at 13,400 × g at 4°C for 10 min. The supernatant was filtered through a 0.22 μm organic membrane, and the resulting sample was analyzed using UPLC-MS/MS.
Cats were divided into seven groups, with six cats in each group. In the intravenous (i.v.) group (Group 1), cats received an injection of KPT-335 at a dosage of 1 mg/kg body weight (BW), administered via a bolus through a venous infusion needle. For the oral (p.o.) administration, cats were given capsules in a fasting state at doses of 0.2 mg/kg BW (Group 2), 1 mg/kg BW (Group 3), and 2 mg/kg BW (Group 4). Additionally, tablets were administered at 1 mg/kg BW (fasting, Group 5), 1 mg/kg BW (Group 6), and 2 mg/kg BW (Group 7) in a feeding state, followed by 3 mL of water delivered with a syringe.
For the p.o. administration, blood samples of 1.5 mL were collected via the brachial cephalic vein prior to administration and at 0.167, 0.333, 0.5, 0.75, 1, 1.5, 2, 4, 6, 8, 12, 24, 32, and 48 h post-administration. […]

[1] = cat, po, 1 mg/kg, tablet p.o. 1 mg/kg BW after feeding, mean, read-out: Plasma concentration Mean
[2] = cat, po, 1 mg/kg, tablet p.o. 1 mg/kg BW after feeding, mean
[3] = cat, po, 2 mg/kg, capsule p.o. 2 mg/kg BW, mean, read-out: Plasma concentration Mean
[4] = cat, po, 2 mg/kg, capsule p.o. 2 mg/kg BW, mean
[5] = cat, po, 2 mg/kg, tablet p.o. 2 mg/kg BW after feeding, mean, read-out: Plasma concentration Mean
[6] = cat, po, 2 mg/kg, tablet p.o. 2 mg/kg BW after feeding, mean
[7] = cat, po, 2 mg/kg, tablet p.o. 2 mg/kg BW after feeding, individual cats 1-6, read-out: Plasma concentration
[8] = iv, 1 mg/kg, i.v., Injection, 1 mg/kg BW
[9] = po, 0.2 mg/kg, p.o., Capsule, Fasting, 0.2 mg/kg BW

SMILES: O=C(/C=C\n1cnc(-c2cc(C(F)(F)F)cc(C(F)(F)F)c2)n1)NNc1ccccn1 [KPT-335]
- concentration at 32 h (cat, po, 1 mg/kg, tablet p.o. 1 mg/kg BW after fasting, mean): 5.11 ng/mL
- concentration at 48 h (cat, po, 1 mg/kg, tablet p.o. 1 mg/kg BW after fasting, mean, read-out: Plasma concentration Mean): 2.26 ng/mL
- concentration at 0.167 h [1]: 13.8 ng/mL
- concentration at 0.33 h [2]: 79.1 ng/mL
- concentration at 0.5 h [2]: 148 ng/mL
- concentration at 0.75 h [2]: 257 ng/mL
- concentration at 1 h [1]: 334 ng/mL
- concentration at 1.5 h [1]: 321 ng/mL
- concentration at 2 h [1]: 304 ng/mL
- concentration at 4 h [1]: 211 ng/mL
- concentration at 6 h [2]: 146 ng/mL
- concentration at 8 h [2]: 107 ng/mL
- concentration at 12 h [2]: 52.1 ng/mL
- concentration at 24 h [2]: 7.74 ng/mL
- concentration at 32 h [2]: 3.37 ng/mL
- concentration at 48 h [1]: 1.25 ng/mL
- concentration at 0.167 h [3]: 0.68 ng/mL
- concentration at 0.33 h [4]: 8.76 ng/mL
- concentration at 0.5 h [4]: 52.5 ng/mL
- concentration at 0.75 h [4]: 152 ng/mL
- concentration at 1 h [3]: 206 ng/mL
- concentration at 1.5 h [3]: 272 ng/mL
- concentration at 2 h [3]: 269 ng/mL
- concentration at 4 h [3]: 187 ng/mL
- concentration at 6 h [4]: 111 ng/mL
- concentration at 8 h [4]: 74.1 ng/mL
- concentration at 12 h [4]: 40.1 ng/mL
- concentration at 24 h [4]: 9.56 ng/mL
- concentration at 32 h [4]: 4.07 ng/mL
- concentration at 48 h [3]: 1.28 ng/mL
- AUC(0-t) (cat, po, 2 mg/kg, p.o., Tablet, Feeding, 2 mg/kg BW): 3000 ng·h/mL
- concentration at 0.167 h [5]: 16.9 ng/mL
- concentration at 0.33 h [6]: 95.9 ng/mL
- concentration at 0.5 h [6]: 222 ng/mL
- concentration at 0.75 h [6]: 389 ng/mL
- concentration at 1 h [7]: 288 ng/mL
- concentration at 1 h [5]: 464 ng/mL
- concentration at 1.5 h [7]: 366 ng/mL
- concentration at 1.5 h [5]: 555 ng/mL
- concentration at 2 h [7]: 303 ng/mL
- concentration at 2 h [5]: 516 ng/mL
- concentration at 4 h [5]: 333 ng/mL
- concentration at 6 h [6]: 187 ng/mL
- concentration at 8 h [6]: 126 ng/mL
- concentration at 12 h [6]: 45 ng/mL
- concentration at 24 h [6]: 6.55 ng/mL
- concentration at 32 h [6]: 2.28 ng/mL
- Tmax (cat, po, all p.o. groups, read-out: Tmax after oral (p.o.) administration): 1 to 2.5 h
- bioavailability (cat, po, p.o. capsules 0.2–2 mg/kg BW, read-out: absolute bioavailability, capsule group range): 28.9 to 44.7%
- bioavailability (cat, po, p.o. tablets 1–2 mg/kg BW, read-out: absolute bioavailability, tablet group range): 47.3 to 75.9%
- MRT last (iv, 1 mg/kg, Injection, 1 mg/kg BW): 4.73 ± 1.1 h
- AUC(0-inf) [8]: 3200 ± 851 ng·h/mL
- AUC(0-t) [8]: 3170 ± 842 ng·h/mL
- Cmax [8]: 851 ± 285 ng/mL
- k el (iv, 1 mg/kg, i.v., Injection, 1 mg/kg BW, read-out: Lambda_z (converted)): 5e-05 s⁻¹
- MRT last (po, 0.2 mg/kg, Capsule, Fasting, 0.2 mg/kg BW): 8.66 ± 2.71 h
- AUC(0-inf) [9]: 314 ± 220 ng·h/mL
- AUC(0-t) [9]: 278 ± 158 ng·h/mL
- Cmax [9]: 27.6 ± 9.02 ng/mL
